Reference: paper PMC9136306 (The Journal of General Physiology, 2022)
Where “and” joins values, the source holds several entries; their conditions need not be identical. Identical values can stand only once.

Assays:
human α7-AChR = human α7-AChR (Homo sapiens, UniProt P36544); assay: cell-based; format: binding; settings: for IC50: Unlabeled-ligand half-competition concentration
[1] = target: T1, Human–C. elegans α7-AChR–β-GluCl chimera S56T + S172T (Homo sapiens, UniProt P36544, S172T/S56T)
[2] = target: T1, Human–C. elegans α7-AChR–β-GluCl chimera S56T + S172T; assay: biochemical; settings: Unlabeled-ligand half-competition concentration
[3] = target: Human–C. elegans α7-AChR–β-GluCl ECD–TMD chimera (UniProt P36544+Q17328); assay: cell-based; format: binding
[4] = target: Chicken–C. elegans α7-AChR–β-GluCl ECD–TMD chimera (UniProt P22770+Q17328); assay: cell-based; format: binding
Sequence of Chicken–C. elegans α7-AChR–β-GluCl ECD–TMD chimera (P22770 whole entry, looked up, change not shown, the tested form may be a part): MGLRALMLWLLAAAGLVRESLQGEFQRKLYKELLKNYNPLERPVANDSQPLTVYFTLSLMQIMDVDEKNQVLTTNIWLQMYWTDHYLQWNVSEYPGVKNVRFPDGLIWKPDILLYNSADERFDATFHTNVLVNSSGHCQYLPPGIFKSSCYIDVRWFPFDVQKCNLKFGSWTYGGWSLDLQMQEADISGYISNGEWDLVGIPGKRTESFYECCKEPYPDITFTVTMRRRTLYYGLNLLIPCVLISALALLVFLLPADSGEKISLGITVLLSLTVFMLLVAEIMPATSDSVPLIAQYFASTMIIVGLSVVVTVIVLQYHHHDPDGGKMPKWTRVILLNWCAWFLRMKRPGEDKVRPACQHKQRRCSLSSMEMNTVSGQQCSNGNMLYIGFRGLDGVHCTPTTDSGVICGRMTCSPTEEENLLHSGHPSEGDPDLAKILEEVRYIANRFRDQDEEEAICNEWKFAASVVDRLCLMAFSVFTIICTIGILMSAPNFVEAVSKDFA
Sequence of Chicken–C. elegans α7-AChR–β-GluCl ECD–TMD chimera (Q17328 whole entry, looked up, change not shown, the tested form may be a part): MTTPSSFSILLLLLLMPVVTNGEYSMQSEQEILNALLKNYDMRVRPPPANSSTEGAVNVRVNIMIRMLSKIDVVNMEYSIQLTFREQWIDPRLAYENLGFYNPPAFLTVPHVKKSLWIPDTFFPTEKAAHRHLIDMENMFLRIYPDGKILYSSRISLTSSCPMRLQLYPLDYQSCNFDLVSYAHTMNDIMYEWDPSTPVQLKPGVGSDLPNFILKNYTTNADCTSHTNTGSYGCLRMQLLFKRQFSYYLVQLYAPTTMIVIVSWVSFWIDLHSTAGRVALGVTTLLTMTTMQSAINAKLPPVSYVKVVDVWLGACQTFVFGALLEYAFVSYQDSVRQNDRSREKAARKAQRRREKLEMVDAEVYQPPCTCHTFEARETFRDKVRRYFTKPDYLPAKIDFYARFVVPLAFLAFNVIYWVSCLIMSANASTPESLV

Sequence of human α7-AChR (P36544 23-502): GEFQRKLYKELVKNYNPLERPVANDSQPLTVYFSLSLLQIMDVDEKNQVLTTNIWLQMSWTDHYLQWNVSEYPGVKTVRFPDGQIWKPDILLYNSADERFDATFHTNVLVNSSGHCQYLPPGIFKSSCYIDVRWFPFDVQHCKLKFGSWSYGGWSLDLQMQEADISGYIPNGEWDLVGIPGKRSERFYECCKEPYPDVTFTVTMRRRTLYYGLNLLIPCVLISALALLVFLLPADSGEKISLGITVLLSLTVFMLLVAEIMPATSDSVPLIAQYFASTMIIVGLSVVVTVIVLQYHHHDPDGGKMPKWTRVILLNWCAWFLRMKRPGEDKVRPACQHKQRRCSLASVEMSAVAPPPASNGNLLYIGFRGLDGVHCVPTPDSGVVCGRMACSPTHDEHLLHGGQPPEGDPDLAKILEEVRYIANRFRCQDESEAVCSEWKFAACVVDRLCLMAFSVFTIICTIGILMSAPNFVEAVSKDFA
Sequence of Human–C. elegans α7-AChR–β-GluCl ECD–TMD chimera (P36544 whole entry, looked up, change not shown, the tested form may be a part): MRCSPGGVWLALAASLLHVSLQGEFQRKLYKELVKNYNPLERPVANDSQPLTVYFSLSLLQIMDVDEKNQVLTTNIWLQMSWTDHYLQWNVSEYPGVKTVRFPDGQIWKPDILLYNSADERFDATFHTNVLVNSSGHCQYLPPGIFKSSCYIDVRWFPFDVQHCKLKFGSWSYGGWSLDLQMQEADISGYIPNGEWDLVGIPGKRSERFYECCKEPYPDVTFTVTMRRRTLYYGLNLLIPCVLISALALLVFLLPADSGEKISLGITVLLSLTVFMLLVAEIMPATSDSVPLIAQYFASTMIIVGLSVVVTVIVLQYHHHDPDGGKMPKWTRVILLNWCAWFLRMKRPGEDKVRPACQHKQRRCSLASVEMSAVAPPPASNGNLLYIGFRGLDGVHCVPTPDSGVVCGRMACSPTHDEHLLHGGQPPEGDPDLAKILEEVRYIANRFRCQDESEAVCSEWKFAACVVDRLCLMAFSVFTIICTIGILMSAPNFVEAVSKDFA
Sequence of Human–C. elegans α7-AChR–β-GluCl ECD–TMD chimera (Q17328 whole entry, looked up, change not shown, the tested form may be a part): as the sequence (Q17328 whole entry, looked up, change not shown, the tested form may be a part) above
T1 sequence (Q17328 245-434): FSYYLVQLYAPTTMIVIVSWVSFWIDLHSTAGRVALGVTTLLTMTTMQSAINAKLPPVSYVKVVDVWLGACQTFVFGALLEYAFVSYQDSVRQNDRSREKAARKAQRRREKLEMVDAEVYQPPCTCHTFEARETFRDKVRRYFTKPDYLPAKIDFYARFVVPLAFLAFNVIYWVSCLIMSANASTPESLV
T1 sequence (P36544 23-230 S56T/S172T): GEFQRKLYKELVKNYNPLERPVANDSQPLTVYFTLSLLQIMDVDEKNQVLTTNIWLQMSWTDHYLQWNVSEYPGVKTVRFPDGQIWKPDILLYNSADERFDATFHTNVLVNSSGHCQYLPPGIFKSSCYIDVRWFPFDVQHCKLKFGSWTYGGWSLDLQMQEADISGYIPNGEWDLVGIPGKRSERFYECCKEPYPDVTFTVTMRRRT

C[N+](C)(C)CCO [Choline, choline]
Unlabeled-ligand nH (Hill coefficient, competition) (human α7-AChR): 1.28 ± 0.08 | IC50 (human α7-AChR): 204 ± 16 µM

CCN1C[C@]2(COC(=O)c3ccccc3N3C(=O)C[C@H](C)C3=O)CC[C@H](OC)[C@@]34[C@@H]5C[C@H]6[C@H](OC)[C@@H]5[C@](O)(C[C@@H]6OC)[C@@](O)([C@@H](OC)[C@H]23)[C@@H]14 [MLA, methyllycaconitine]
Unlabeled-ligand nH (Hill coefficient, competition) [1]: 1.04 ± 0.08 | IC50 [2]: 32 nM and 32.5 nM | Unlabeled-ligand nH (Hill coefficient, competition) [3]: 1.01 ± 0.05 | IC50 ([3]; Unlabeled-ligand half-competition concentration): 68 nM and 68.3 nM | Unlabeled-ligand nH (Hill coefficient, competition) (human α7-AChR): 0.95 ± 0.05 | IC50 (human α7-AChR): 0.0889 ± 0.00854 µM | IC50 [4]: 4.9 ± 0.52 nM | Unlabeled-ligand nH (Hill coefficient, competition) [4]: 0.990 ± 0.07 | difference between closed-state affinities of the chicken and human α7-AChR ECDs [4]: ~14 fold

CN1CCC[C@H]1c1cccnc1 [Nicotine, nicotine]
Unlabeled-ligand nH (Hill coefficient, competition) [3]: 1.08 ± 0.06 | Hill coefficient, individual curve fitted separately (human α7-AChR): 1.50 ± 0.001 and 1.28 ± 0.001 and 1.42 ± 0.13 | Unlabeled-ligand nH (Hill coefficient, competition) (human α7-AChR): 1.41 ± 0.06 | IC50 [4]: 3680 ± 110 nM | Unlabeled-ligand nH (Hill coefficient, competition) [4]: 1.80 ± 0.07
